Test results as given in patent US4268630A, “Microbiological production of ketones from C3 -C6 alkanes” (priority 1979, dated 1981).

Tests used:
[1] = system: Methylobacterium sp. (CRL-26, NRRL-B-11,208); assay: Conversion of n-alkanes to secondary alcohols by cell suspensions; format: cell-based; details: growth substrate Methane
From the text: (§1) Both cell suspensions (particulate fraction) and cell-free particulate fraction of methane-grown methylotroph microorganisms are capable of catalyzing the conversion of C3 -C6 n-alkanes to the corresponding alcohols including secondary alcohols. The conditions for preparing the cell suspensions or the cell-free particulate fractions from methane-grown methylotroph microorganisms is the same as described above. The cell-free particulate fraction requires the presence of oxygen and NADH as an electron donor. […] Tables XVI and XVII show the conversion of C3 -C6 n-alkanes to the corresponding secondary alcohols using cell suspensions and cell-free particulate fractions, respectively, of methane-grown methylotroph microorganisms.

[2] = system: Methylosinus trichosporium (OB3b, NRRL-B-11,196); assay: as above; format: cell-based; details: growth substrate Methane
From the text: as §1

[3] = system: Methylomonas sp. (CRL-17, NRRL-B-11,209); assay: as above; format: cell-based; details: growth substrate Methane
From the text: as §1

[4] = system: Methylococcus capsulatus (Texas, ATCC 19,069); assay: as above; format: cell-based; details: growth substrate Methane
From the text: as §1

[5] = system: Methylosinus sp. (CRL-15, NRRL-B-11,202); assay: as above; format: cell-based; details: growth substrate Methane
From the text: as §1

[6] = system: Methylobacter capsulatus (Y, NRRL-B-11,201); assay: as above; format: cell-based; details: growth substrate Methane
From the text: as §1

[7] = system: Methylococcus capsulatus Texas (ATCC 19069); assay: Oxidation of n-alkanes to methyl ketones by resting cell suspension; format: cell-based; details: cell suspension grown on methane
Method: (§2) The pH of the nutrient medium was adjusted to 7.0 by the addition of acid or base and 50 ml. samples of the nutrient medium were charged into a plurality of 300 ml. shaker flasks. The shaker flasks were inoculated with an inoculating loop of cells from an agar plate containing homogeneous colonies of the microorganisms on the plate (the purity of the isolates was confirmed by microscopic examination). The isolates had been maintained on methanol (0.4% V/V) agar plates or on agar plates under an atmosphere of methane and air having a 1:1 V/V gas ratio which had been transferred every two weeks. For growth on methanol, the medium was supplemented with 0.4% methanol. For growth on methane, the gaseous phase of the inoculated flasks was replaced with a gas mixture comprised on methane and air having a ratio of 1:1 on a V/V basis. The inoculated flasks were sealed air-tight and were incubated on a rotary shaker of orbital radius 2.5 cm. at 250 rpm and at 30° C. for two days until turbidity in the medium had developed. The cells were harvested by centrifugation at 10,000×g. at 4° C. for 30 minutes. The cell pellet was washed twice with a 0.05 M phosphate buffer at a pH of 7.0 (containing 0.02 M MgCl2). The washed cells were then suspended in a 0.05 M phosphate buffer at pH 7.0.
A 0.5 ml. sample of each washed cell suspension (2 mg. cells) was put into 10 ml. vials at 4° C. which were sealed with a rubber cap. The gaseous phase of the vials was removed with vacuum and then was replaced with a gas mixture of the substrate reactant (i.e., alkane or secondary alcohol) and oxygen at a 1:1 V/V ratio. (In the case of a liquid substrate, i.e., secondary alcohol, 10 μl of the substrate was put in the 10 ml. vials). […] Samples of product (1-3 μl) were withdrawn periodically with a microsyringe and the products were analyzed by gas chromatography (ionization flame detector column).

[8] = system: Methylomonas albus BG8 (NRRL B-11,200); assay: as above; format: cell-based; details: cell suspension grown on methane
Method: as §2, with “The shaker flasks were inoculated with an inoculating loop of cells from an agar plate containing homogeneous colonies of the microorganisms on the plate (the purity of the isolates was confirmed by microscopic examination).” left out
(§3) A 0.5 ml. sample of each washed cell suspension (2 mg. cells) was put into 10 ml. vials at 4° C. which were sealed with a rubber cap. The gaseous phase of the vials was removed with vacuum and then was replaced with a gas mixture of the substrate reactant (i.e., alkane or secondary alcohol) and oxygen at a 1:1 V/V ratio. (In the case of a liquid substrate, i.e., secondary alcohol, 10 μl of the substrate was put in the 10 ml. vials). The vials were then incubated at 30° C. on a rotary shaker at 300 rpm. Samples of product (1-3 μl) were withdrawn periodically with a microsyringe and the products were analyzed by gas chromatography (ionization flame detector column).

[9] = system: Methylosinus sporium 5 (NRRL B-11,197); assay: as above; format: cell-based; details: cell suspension grown on methane
Method: as §2, with “The shaker flasks were inoculated with an inoculating loop of cells from an agar plate containing homogeneous colonies of the microorganisms on the plate (the purity of the isolates was confirmed by microscopic examination).” left out
as §3

[10] = system: Methylobacter capsulatus Y (NRRL B-11,201); assay: as above; format: cell-based; details: cell suspension grown on methane
Method: as §2, with “The shaker flasks were inoculated with an inoculating loop of cells from an agar plate containing homogeneous colonies of the microorganisms on the plate (the purity of the isolates was confirmed by microscopic examination).” left out
as §3

[11] = system: Methylosinus trichosporium OB3b (NRRL B-11,196); assay: as above; format: cell-based; details: cell suspension grown on methane
Method: as §2, with “The shaker flasks were inoculated with an inoculating loop of cells from an agar plate containing homogeneous colonies of the microorganisms on the plate (the purity of the isolates was confirmed by microscopic examination).” left out
as §3

[12] = system: Methylobacterium organophilum XX; assay: as above; format: cell-based; details: cell suspension grown on methane
Method: as §2, with “The shaker flasks were inoculated with an inoculating loop of cells from an agar plate containing homogeneous colonies of the microorganisms on the plate (the purity of the isolates was confirmed by microscopic examination).” left out
as §3

[13] = system: Methylocystis parvus OBBP (NRRL B-11,198); assay: as above; format: cell-based; details: cell suspension grown on methane
Method: as §2, with “The shaker flasks were inoculated with an inoculating loop of cells from an agar plate containing homogeneous colonies of the microorganisms on the plate (the purity of the isolates was confirmed by microscopic examination).” left out
as §3

[14] = system: Methylomonas methanica SI (NRRL B-11,199); assay: as above; format: cell-based; details: cell suspension grown on methane
Method: as §2, with “The shaker flasks were inoculated with an inoculating loop of cells from an agar plate containing homogeneous colonies of the microorganisms on the plate (the purity of the isolates was confirmed by microscopic examination).” left out
as §3

[15] = system: Methylosinus trichosporium OB3b NRRL B-11,196; assay: Conversion of n-alkanes to oxidation products by cell suspensions; format: cell-based; details: methane-grown cell suspension, pH 7.0
Method: (§11) ^(a) Cell-suspensions of methanegrown methylotroph microorganisms
(§12) indicated in 0.15 M phosphate buffer, pH 7.0 incubated in the alkanes as
(§13) indicated at 3° C. The oxidation products were determined by g.l.c

[16] = system: Methylococcus capsulatus CRL M1 NRRL B-11,219; assay: as above; format: cell-based; details: methane-grown cell suspension, pH 7.0
Method: as §11, §12, §13

[17] = system: particulate P(40) fraction of Methylococcus capsulatus (Texas, ATCC 19,069); assay: Hydroxylation of n-alkanes to secondary alcohols by particulate P(40) fraction; format: biochemical
From the text: as §1
(§4) ^(a) Particulate P(40) fraction was prepared as follows:
(§5) Cellsuspensions at 4° C. were disintegrated through a French
(§6) Pressure cell and centrifuged at 4000 × g. for 15 min. to remove
(§7) unbroken bacteria. The supernatant solution was then centrifuged at 40,00
(§8) × g. for 30 min. at 4° C. yielding the particulate P(40) and
(§9) soluble S(40) fractions. The products were identified by gas
(§10) chromatography and cochromatography with authentic standard.

[18] = molecular target: particulate P(40) fraction of Methylosinus sp. (CRL-15, NRRL-B-11,202) (Methylosinus trichosporium, UniProt Q50541+Q9KX50+Q9KX51); assay: as above; format: biochemical
Sequence of particulate P(40) fraction of Methylosinus sp. (CRL-15, NRRL-B-11,202) (Q9KX50 40-431): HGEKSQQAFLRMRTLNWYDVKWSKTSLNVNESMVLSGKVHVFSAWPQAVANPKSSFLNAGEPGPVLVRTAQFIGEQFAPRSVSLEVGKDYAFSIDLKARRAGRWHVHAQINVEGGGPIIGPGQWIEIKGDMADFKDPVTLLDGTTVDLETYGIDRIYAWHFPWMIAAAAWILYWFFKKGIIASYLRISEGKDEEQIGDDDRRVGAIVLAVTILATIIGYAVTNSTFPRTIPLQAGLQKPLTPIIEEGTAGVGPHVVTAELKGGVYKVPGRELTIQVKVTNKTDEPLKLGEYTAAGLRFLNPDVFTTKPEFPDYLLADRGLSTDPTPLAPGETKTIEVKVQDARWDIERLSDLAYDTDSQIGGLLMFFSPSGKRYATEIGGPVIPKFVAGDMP
Sequence of particulate P(40) fraction of Methylosinus sp. (CRL-15, NRRL-B-11,202) (Q50541 1-252): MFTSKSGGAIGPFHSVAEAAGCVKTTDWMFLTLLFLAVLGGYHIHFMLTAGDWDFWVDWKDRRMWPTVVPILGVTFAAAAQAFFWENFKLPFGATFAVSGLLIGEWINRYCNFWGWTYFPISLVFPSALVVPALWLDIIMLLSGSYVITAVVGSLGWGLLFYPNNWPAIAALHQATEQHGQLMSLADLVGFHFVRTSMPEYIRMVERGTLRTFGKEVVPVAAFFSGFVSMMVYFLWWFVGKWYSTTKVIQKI
Sequence of particulate P(40) fraction of Methylosinus sp. (CRL-15, NRRL-B-11,202) (Q9KX51 1-256): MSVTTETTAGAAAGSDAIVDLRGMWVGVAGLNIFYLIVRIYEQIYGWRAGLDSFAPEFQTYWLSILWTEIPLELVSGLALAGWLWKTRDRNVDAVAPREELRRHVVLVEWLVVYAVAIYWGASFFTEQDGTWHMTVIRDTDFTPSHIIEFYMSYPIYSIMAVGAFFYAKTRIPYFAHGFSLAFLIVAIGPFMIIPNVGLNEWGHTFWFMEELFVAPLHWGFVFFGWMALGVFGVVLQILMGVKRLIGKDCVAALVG
From the text: as §1, §4, §5, §6, §7, §8, §9, §10

[19] = system: particulate P(40) fraction of Methylobacterium sp. (CRL-26, NRRL-B-11,222); assay: as above; format: biochemical
From the text: as §1, §4, §5, §6, §7, §8, §9, §10

[20] = system: particulate P(40) fraction of Methylosinus trichosporium (OB3b, NRRL-B-11,196); assay: as above; format: biochemical
From the text: as §1, §4, §5, §6, §7, §8, §9, §10

Structure (SMILES) | Conversion Rate, n-alkane to secondary alcohol [1] [μmoles/hr/^5 mg. protein] | Conversion Rate, n-alkane to secondary alcohol [2] [μmoles/hr/^5 mg. protein] | Conversion Rate, n-alkane to secondary alcohol [3] [μmoles/hr/^5 mg. protein] | Conversion Rate, n-alkane to secondary alcohol [4] [μmoles/hr/^5 mg. protein] | Conversion Rate, n-alkane to secondary alcohol [5] [μmoles/hr/^5 mg. protein] | Conversion Rate, n-alkane to secondary alcohol [6] [μmoles/hr/^5 mg. protein] | Conversion Rates, n-alkane to methyl ketone [7] [μmoles/hr/mg protein] | Conversion Rates, n-alkane to methyl ketone [8] [μmoles/hr/mg protein] | Conversion Rates, n-alkane to methyl ketone [9] [μmoles/hr/mg protein] | Conversion Rates, n-alkane to methyl ketone [10] [μmoles/hr/mg protein] | Conversion Rates, n-alkane to methyl ketone [11] [μmoles/hr/mg protein] | Conversion Rates, n-alkane to methyl ketone [12] [μmoles/hr/mg protein] | Conversion Rates, n-alkane to methyl ketone [13] [μmoles/hr/mg protein] | Conversion Rates, n-alkane to methyl ketone [14] [μmoles/hr/mg protein] | Conversion Rate, n-alkane to secondary alcohol [17] | Conversion Rate, n-alkane to secondary alcohol [18] | Conversion Rate, n-alkane to secondary alcohol [19] | Conversion Rate, n-alkane to secondary alcohol [20] | further results
CCC [n-Propane, n-propane] | 1.4 | 2.5 | 1.6 | 1.1 | 2.1 | 0.20 | 1.2 | 2.7 | 2.1 | 1.6 | 1.5 | 2.8 | 1.8 | 2.5 | 1.2 μmoles/hr/2.0mg. of protein | 1.5 μmoles/hr/2.0mg. of protein | 1.0 μmoles/hr/2.0mg. of protein | 1.32 μmoles/hr/2.0mg. of protein | Conversion Rate to product 1-Propanol [15]: 0.4 μmoles/hr./mg./protein; Conversion Rate to product 2-Propanol [15]: 0.6 μmoles/hr./mg./protein; Conversion Rate to product Acetone [15]: 0.2 μmoles/hr./mg./protein; Conversion Rate to product Propanol [15]: 0.1 μmoles/hr./mg./protein; Conversion Rate to product 1-Propanol [16]: 0.5 μmoles/hr./mg./protein; Conversion Rate to product 2-Propanol [16]: 0.7 μmoles/hr./mg./protein; Conversion Rate to product Acetone [16]: 0.3 μmoles/hr./mg./protein; Conversion Rate to product Propanol [16]: 0.2 μmoles/hr./mg./protein
CCCC [n-Butane, n-butane] | 0.80 | 1.5 | 1.2 | 1.0 | 1.2 | 0.09 | 0.52 | 0.60 | 0.58 | 1.1 | 1.2 | 2.0 | 1.0 | 0.30 | 0.92 μmoles/hr/2.0mg. of protein | 0.89 μmoles/hr/2.0mg. of protein | 0.61 μmoles/hr/2.0mg. of protein | 0.79 μmoles/hr/2.0mg. of protein | Conversion Rate to product 1-Butanol [15]: 0.3 μmoles/hr./mg./protein; Conversion Rate to product 2-Butanol [15]: 0.4 μmoles/hr./mg./protein; Conversion Rate to product 2-Butanone [15]: 0.1 μmoles/hr./mg./protein; Conversion Rate to product n-butanol [15]: 0.1 μmoles/hr./mg./protein; Conversion Rate to product 1-Butanol [16]: 0.4 μmoles/hr./mg./protein; Conversion Rate to product 2-Butanol [16]: 0.5 μmoles/hr./mg./protein; Conversion Rate to product 2-Butanone [16]: 0.2 μmoles/hr./mg./protein; Conversion Rate to product n-butanol [16]: 0.2 μmoles/hr./mg./protein
